Among the data in patent US11613556B2, “Oxysterols and methods of use thereof” (Sage Therapeutics, Inc., priority 2016, dated 2023) are EC50, Emax and activation values, retold here.

Like-named read-outs stand apart in the source and are kept apart here. Some results are limits rather than exact numbers.

Holding throughout (format): cell-based
Test [1] has as its target GluN1/GluN2A glutamate receptors (human GRIN1/GRIN2A) expressed in HEK293 cells (Homo sapiens (Human), UniProt Q05586+Q12879). The test is described as follows: Whole-cell patch clamp of mammalian cells (Ionworks Barracuda), positive allosteric modulation, GluN1/GluN2A. As to conditions: for Emax: read-out: GluN2A PCA EMax (%). The method in brief: (§1)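 Ionworks Barracuda perforated-patch recordings, holding −70 mV, −40 mV during application; CsCl/CsF intracellular pH 7.2, HB-PS extracellular pH 7.4 with 5 mM CaCl2. 5 min pre-application of test article alone, then co-application with EC20 L-glutamate plus 30 μM glycine; potentiation read as peak current amplitude.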
Background: Patch clamp records ionic current or voltage across a cell membrane.

Test [2] has as its target GluN2B glutamate receptors expressed in mammalian cells (Homo sapiens (Human), UniProt Q05586+Q13224). The test is described as follows: Whole-cell patch clamp of mammalian cells (Ionworks Barracuda), positive allosteric modulation, GluN2B. As to conditions: for Emax: read-out: GluN2B PCA EMax (%). In short, it runs like this: as §1
The target in test [3] is glutamate-activated channels of the GRIN1/2A subtype stably transfected in HEK 293 cells (Homo sapiens (Human), UniProt Q05586+Q12879). The test is described as follows: Automated patch-clamp system (QPatch HTX), percent potentiation at 1 μM. As to conditions: HEK293, 1 μM test compound, 300 μM NMDA with 8 μM glycine, HEK 293 GRIN1/2A, read-out: GluN2A PCA % potentiation at 1 μM. The method in brief: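 Tetracycline-induced HEK 293 cells stably expressing human GRIN1/2A were whole-cell recorded on QPatch HTX in Mg-free bath solution at pH 7.4. Compound at 1.0 μM (0.1% DMSO) was co-applied with submaximal 300 μM NMDA plus 8 μM glycine, and percent potentiation was recorded.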
glutamate-activated channels of the GRIN1/2A subtype stably transfected in HEK 293 cells, sequence (Q12879 whole entry, looked up, other chains not shown): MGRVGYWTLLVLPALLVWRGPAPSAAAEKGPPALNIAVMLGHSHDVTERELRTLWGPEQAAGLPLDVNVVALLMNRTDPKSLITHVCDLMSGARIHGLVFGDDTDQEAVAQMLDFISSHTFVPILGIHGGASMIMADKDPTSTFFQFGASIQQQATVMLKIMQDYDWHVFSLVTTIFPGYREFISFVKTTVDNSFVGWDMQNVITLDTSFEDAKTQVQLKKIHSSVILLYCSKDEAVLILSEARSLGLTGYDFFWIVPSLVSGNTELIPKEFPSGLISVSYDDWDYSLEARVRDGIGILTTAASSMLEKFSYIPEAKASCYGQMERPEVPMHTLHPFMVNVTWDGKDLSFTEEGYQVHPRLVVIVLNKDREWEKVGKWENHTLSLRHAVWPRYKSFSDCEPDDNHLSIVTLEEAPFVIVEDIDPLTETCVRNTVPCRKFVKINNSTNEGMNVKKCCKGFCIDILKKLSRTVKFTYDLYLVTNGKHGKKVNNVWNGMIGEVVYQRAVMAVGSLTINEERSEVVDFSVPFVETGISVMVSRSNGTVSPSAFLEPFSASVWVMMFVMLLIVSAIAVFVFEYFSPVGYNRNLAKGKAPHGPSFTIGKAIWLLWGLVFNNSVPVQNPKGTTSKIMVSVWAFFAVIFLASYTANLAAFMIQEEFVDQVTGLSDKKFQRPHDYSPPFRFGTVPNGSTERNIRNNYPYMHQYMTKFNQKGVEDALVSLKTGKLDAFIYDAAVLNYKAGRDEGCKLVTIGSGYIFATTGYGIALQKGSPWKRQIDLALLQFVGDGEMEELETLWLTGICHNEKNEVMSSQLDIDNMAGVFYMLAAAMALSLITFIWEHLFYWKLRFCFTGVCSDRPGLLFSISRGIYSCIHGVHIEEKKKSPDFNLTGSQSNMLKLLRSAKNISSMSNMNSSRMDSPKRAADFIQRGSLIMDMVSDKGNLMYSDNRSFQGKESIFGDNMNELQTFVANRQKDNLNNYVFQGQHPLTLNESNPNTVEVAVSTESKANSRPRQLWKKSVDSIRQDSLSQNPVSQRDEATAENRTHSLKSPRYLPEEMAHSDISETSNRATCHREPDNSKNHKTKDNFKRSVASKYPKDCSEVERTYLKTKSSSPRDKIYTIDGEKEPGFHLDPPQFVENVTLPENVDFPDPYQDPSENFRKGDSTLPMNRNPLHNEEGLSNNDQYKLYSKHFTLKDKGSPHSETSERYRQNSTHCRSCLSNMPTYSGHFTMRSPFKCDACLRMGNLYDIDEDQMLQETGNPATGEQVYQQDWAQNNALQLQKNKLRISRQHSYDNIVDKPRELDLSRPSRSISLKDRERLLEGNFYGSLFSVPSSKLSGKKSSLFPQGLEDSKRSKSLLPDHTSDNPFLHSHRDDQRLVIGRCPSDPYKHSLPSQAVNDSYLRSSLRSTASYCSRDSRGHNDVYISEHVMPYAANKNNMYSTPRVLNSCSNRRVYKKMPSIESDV

Where [4] appears, read: peak current amplitude, co-application with EC20 L-glutamate and 30 μM glycine, HEK293.
[5] abbreviates: peak current amplitude, co-application with EC20 L-glutamate and 30 μM glycine, read-out: GluN2B PCA EC50.
Setting [6] is: peak current amplitude, co-application with EC20 L-glutamate and 30 μM glycine.
[7] abbreviates: peak current amplitude, co-application with EC20 L-glutamate and 30 μM glycine, HEK293, read-out: GluN2A PCA EC50.

GluN2B glutamate receptors expressed in mammalian cells, sequence (Q13224 27-1484, other chains not shown): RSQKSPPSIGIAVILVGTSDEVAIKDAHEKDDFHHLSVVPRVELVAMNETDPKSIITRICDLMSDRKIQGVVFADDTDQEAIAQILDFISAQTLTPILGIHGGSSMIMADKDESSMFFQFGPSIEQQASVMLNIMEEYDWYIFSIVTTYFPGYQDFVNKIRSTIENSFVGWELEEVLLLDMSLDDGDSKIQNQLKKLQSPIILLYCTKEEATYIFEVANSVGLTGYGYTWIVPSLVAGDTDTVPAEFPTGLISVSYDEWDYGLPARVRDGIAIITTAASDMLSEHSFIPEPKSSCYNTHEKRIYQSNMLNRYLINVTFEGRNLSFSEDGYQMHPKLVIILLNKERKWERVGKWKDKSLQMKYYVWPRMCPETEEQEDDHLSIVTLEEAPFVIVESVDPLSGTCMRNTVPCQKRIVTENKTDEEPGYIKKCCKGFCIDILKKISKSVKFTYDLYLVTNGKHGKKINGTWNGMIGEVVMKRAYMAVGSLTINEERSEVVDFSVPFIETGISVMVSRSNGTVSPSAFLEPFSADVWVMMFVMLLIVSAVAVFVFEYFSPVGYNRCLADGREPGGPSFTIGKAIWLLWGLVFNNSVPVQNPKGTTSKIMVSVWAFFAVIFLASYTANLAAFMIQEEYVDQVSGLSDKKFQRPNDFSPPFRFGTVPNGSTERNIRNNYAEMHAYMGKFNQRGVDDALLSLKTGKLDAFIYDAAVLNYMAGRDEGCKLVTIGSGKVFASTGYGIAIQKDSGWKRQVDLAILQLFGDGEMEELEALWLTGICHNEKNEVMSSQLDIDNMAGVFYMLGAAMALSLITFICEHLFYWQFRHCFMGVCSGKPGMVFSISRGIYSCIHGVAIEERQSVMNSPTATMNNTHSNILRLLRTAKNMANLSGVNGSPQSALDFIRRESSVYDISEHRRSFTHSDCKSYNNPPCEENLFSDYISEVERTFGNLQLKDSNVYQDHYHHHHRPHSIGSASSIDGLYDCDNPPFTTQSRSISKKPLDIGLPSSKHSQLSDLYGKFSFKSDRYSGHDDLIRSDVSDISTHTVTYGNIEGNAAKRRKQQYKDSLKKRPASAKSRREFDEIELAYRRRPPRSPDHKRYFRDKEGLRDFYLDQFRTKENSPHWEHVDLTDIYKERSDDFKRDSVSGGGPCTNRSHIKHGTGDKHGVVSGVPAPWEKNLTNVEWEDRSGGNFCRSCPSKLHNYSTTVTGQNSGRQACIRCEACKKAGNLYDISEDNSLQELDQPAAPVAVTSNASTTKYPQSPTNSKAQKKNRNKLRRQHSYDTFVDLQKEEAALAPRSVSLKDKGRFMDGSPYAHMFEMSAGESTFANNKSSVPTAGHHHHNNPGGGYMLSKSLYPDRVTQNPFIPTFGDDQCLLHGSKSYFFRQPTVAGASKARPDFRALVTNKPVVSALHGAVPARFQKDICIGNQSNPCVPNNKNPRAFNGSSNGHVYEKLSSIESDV
GluN1/GluN2A glutamate receptors (human GRIN1/GRIN2A) expressed in HEK293 cells, sequence (Q12879 whole entry, looked up, other chains not shown): as the sequence (Q12879 whole entry, looked up, other chains not shown) above

The EC50 is the midpoint of the concentration-response curve. One may read the Emax as the greatest response seen or fitted, relative to the assay's reference. `CC[C@]1(O)CC[C@@]2(C)[C@@H](CC[C@@H]3[C@@H]2CC[C@]2(C)[C@@H]([C@H](C)[C@H](O)CC4CCCC4)CC[C@@H]32)C1` [Compound 84, (3S,5S,8R,9S,10S,13S,14S,17R)-17-((2S,3R)-4-cyclopentyl-3-hydroxybutan-2-yl)-3-ethyl-10,13-dimethylhexadecahydro-1H-cyclopenta[a]phenanthren-3-ol]: the EC50 in test [1] and in test [2] (setting [5]) was more than 1000 nM throughout. For the same molecule, the Emax in test [1] (setting [4]) and in test [2] (setting [6]) was less than 100% each time. Moreover, the activation at 1 µM in test [3] was -10 to 10%.
In the case of `CC[C@]1(O)CC[C@@]2(C)[C@H](CC[C@@H]3[C@@H]2CC[C@]2(C)[C@@H]([C@H](C)[C@H](O)CCC(C)C)CC[C@@H]32)C1` [Compound 96, (3S,5R,8R,9S,10S,13S,14S,17R)-3-ethyl-17-((2S,3R)-3-hydroxy-6-methylheptan-2-yl)-10,13-dimethylhexadecahydro-1H-cyclopenta[a]phenanthren-3-ol], the values for the half-maximal effective concentration (EC50) in test [1] (setting [7]) and in test [2] were 100 to 1000 nM and more than 1000 nM, respectively. For the same molecule, the Emax in test [1] (setting [4]) and in test [2] was less than 100% in each case. Further, in test [3], the activation at 1 µM is -10 to 10%.
Take `CC[C@]1(O)CC[C@@]2(C)C(=CC[C@H]3[C@@H]4CC[C@H]([C@H](C)[C@H](O)CC5CCC(C)(C)CC5)[C@@]4(C)CC[C@@H]32)C1` [Compound 12, (3S,8S,9S,10R,13S,14S,17R)-17-((2S,3R)-4-(4,4-dimethylcyclohexyl)-3-hydroxybutan-2-yl)-3-ethyl-10,13-dimethyl-2,3,4,7,8,9,10,11,12,13,14,15,16,17-tetradecahydro-1H-cyclopenta[a]phenanthren-3-ol]: the EC50 in test [1] and in test [2] (setting [5]) was more than 1000 nM in each case. The Emax in test [1] (setting [4]) and in test [2] (setting [6]) was less than 100% in each case. Besides, in test [3], the activation at 1 µM is -10 to 10%.
As for `CC[C@]1(O)CC[C@@]2(C)[C@H](CC[C@@H]3[C@@H]2CC[C@]2(C)[C@@H]([C@H](C)[C@H](O)CC4CCC(C)(C)CC4)CC[C@@H]32)C1` [Compound 87, (3S,5R,8R,9S,10S,13S,14S,17R)-17-((2S,3R)-4-(4,4-dimethylcyclohexyl)-3-hydroxybutan-2-yl)-3-ethyl-10,13-dimethylhexadecahydro-1H-cyclopenta[a]phenanthren-3-ol], the EC50 in test [1] (setting [7]) and in test [2] was more than 1000 nM throughout. The maximal effect (Emax) in test [1] (setting [4]) and in test [2] was less than 100% each time. Besides, in test [3], the activation at 1 µM was -10 to 10%.
With `CC[C@]1(O)CC[C@@]2(C)[C@H](CC[C@@H]3[C@@H]2CC[C@]2(C)[C@@H]([C@H](C)[C@H](O)CC4CCCC4)CC[C@@H]32)C1` [Compound 67, (3S,5R,8R,9S,10S,13S,14S,17R)-17-((2S,3R)-4-cyclopentyl-3-hydroxybutan-2-yl)-3-ethyl-10,13-dimethylhexadecahydro-1H-cyclopenta[a]phenanthren-3-ol], the EC50 in test [1] and in test [2] (setting [5]) was more than 1000 nM throughout. Also, the Emax in test [1] (setting [4]) and in test [2] (setting [6]) was less than 100% in each case. In addition, the activation at 1 µM in test [3] was -10 to 10%.
With `CC[C@]1(O)CC[C@@]2(C)[C@@H](CC[C@@H]3[C@@H]2CC[C@]2(C)[C@@H]([C@H](C)[C@@H](O)CC4CCCC4)CC[C@@H]32)C1` [Compound 98, (3S,5S,8R,9S,10S,13S,14S,17R)-17-((2S,3S)-4-cyclopentyl-3-hydroxybutan-2-yl)-3-ethyl-10,13-dimethylhexadecahydro-1H-cyclopenta[a]phenanthren-3-ol], the EC50 in test [1] and in test [2] (setting [5]) was more than 1000 nM each time. The Emax in test [1] (setting [4]) and in test [2] (setting [6]) was less than 100% throughout. Besides, in test [3], the activation at 1 µM is -40 to -10%.
For the molecule `CC[C@]1(O)CC[C@@]2(C)C(=CC[C@H]3[C@@H]4CC[C@H]([C@H](C)[C@@H](O)CC5CCCC5)[C@@]4(C)CC[C@@H]32)C1` [Compound 100, (3S,8S,9S,10R,13S,14S,17R)-17-((2S,3S)-4-cyclopentyl-3-hydroxybutan-2-yl)-3-ethyl-10,13-dimethyl-2,3,4,7,8,9,10,11,12,13,14,15,16,17-tetradecahydro-1H-cyclopenta[a]phenanthren-3-ol], the EC50 in test [1] and in test [2] (setting [5]) was more than 1000 nM throughout. Further, the Emax in test [1] (setting [4]) and in test [2] (setting [6]) was less than 100% each time. For the same molecule, the activation at 1 µM in test [3] was -40 to -10%.
As to `CC[C@]1(O)CC[C@@]2(C)[C@@H](CC[C@@H]3[C@@H]2CC[C@]2(C)[C@@H]([C@H](C)[C@@H](O)CC4CCC(C)(C)CC4)CC[C@@H]32)C1` [Compound 4, (3S,5S,8R,9S,10S,13S,14S,17R)-17-((2S,3S)-4-(4,4-dimethylcyclohexyl)-3-hydroxybutan-2-yl)-3-ethyl-10,13-dimethylhexadecahydro-1H-cyclopenta[a]phenanthren-3-ol], the values for the EC50 in test [1] (setting [7]) and in test [2] were 1 to 100 nM and more than 1000 nM, respectively. For the same molecule, the Emax in test [1] (setting [4]) and in test [2] was less than 100% each time. Besides, in test [3], the activation at 1 µM is less than -40%.
Consider `CC(C)CC[C@H](O)[C@@H](C)[C@H]1CC[C@H]2[C@@H]3CC[C@H]4C[C@@](C)(O)CC[C@]4(C)[C@H]3CC[C@]12C` [Compound 8, (3S,5S,8R,9S,10S,13S,14S,17R)-17-((2S,3S)-3-hydroxy-6-methylheptan-2-yl)-3,10,13-trimethylhexadecahydro-1H-cyclopenta[a]phenanthren-3-ol], for which the EC50 in test [1] and in test [2] (setting [5]) was more than 1000 nM in each case. In addition, the Emax in test [1] (setting [4]) and in test [2] (setting [6]) was less than 100% in each case. In test [3], the activation at 1 µM is less than -40%.
